Measured values from patent US7659251B2, “Ligand for G-protein coupled receptor FPRL2” (priority 2004, dated 2010).

Target: T1, FPR (Homo sapiens, UniProt P21462, E346A/V101L)
T1 construct: expressed in transfected cells; host or cells: CHO-K1 (with or without Galpha16 and apoaequorin)
T1 sequence (P21462 1-350 V101L/E346A): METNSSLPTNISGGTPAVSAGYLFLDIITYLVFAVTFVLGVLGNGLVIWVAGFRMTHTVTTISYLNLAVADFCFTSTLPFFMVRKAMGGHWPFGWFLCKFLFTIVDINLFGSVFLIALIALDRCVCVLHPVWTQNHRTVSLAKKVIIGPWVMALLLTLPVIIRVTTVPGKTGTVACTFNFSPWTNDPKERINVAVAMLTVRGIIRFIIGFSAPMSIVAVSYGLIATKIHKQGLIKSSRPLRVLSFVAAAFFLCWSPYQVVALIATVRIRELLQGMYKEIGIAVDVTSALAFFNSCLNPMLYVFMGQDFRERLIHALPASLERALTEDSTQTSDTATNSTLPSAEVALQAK
Experiment: cAMP accumulation assay (HTRF, forskolin) on FPR-expressing CHO-K1 cells
Type: cell-based
Procedure: The cAMP concentrations were determined using a homogeneous time-resolved fluorescence (HTRF) kit (Cis Bio International). Briefly, cells were detached, resuspended in Krebs Ringer Hepes buffer containing 1 mM 3-Isobutyl-1-methylxanthine, and submitted to 10 μM forskolin, alone or together with increasing concentrations of agonists for 30 min at room temperature. The reaction was stopped by the successive addition of cAMP-XL665 and anti-cAMP cryptate diluted in lysis buffer. The plates were incubated for 60 min at room temperature and read on a Rubystar fluorimeter (BMG). […] A calibration curve was obtained by plotting delta F % versus cAMP concentrations. […] The aequorin-based assay was performed with or without overnight pretreatment with 100 ng/ml Pertussis toxin. […] For FPRL2 polymorphism analysis, HEK cells were transiently transfected with empty and wild-type or Asp338H is FPRL2-containing pcdna vector using calcium phosphate method. Cells were recovered 48 hours later and used for FACS or cAMP experiments.

## CC[C@H](C)[C@H](NC(=O)[C@H](CCSC)NC(=O)CNC(=O)[C@H](CC(C)C)NC(=O)[C@H](CCSC)NC(C)=O)C(=O)N[C@@H](CCCCN)C(=O)N[C@@H](CC(N)=O)C(=O)N[C@@H](CO)C(=O)N[C@@H](CC(C)C)C(=O)N[C@@H](Cc1ccccc1)C(=O)NCC(=O)N[C@@H](CO)C(=O)N[C@H](C(=O)N[C@@H](CCC(=O)O)C(=O)N[C@H](C(=O)N[C@@H](Cc1c[nH]c2ccccc12)C(=O)N1CCC[C@H]1C(=O)N[C@@H](Cc1c[nH]c2ccccc12)C(=O)N[C@@H](CCC(N)=O)C(=O)N[C@H](C(=O)N[C@@H](CC(C)C)C(=O)O)C(C)C)[C@@H](C)O)C(C)C [F2L]
1 μM F2L
  inhibition of cAMP accumulation on FPR: only partial inhibition
FPR, −Log of EC50 in Mol/L, mean ± s.e.m., read-out: pEC50 (cAMP assay) (converted)
  EC50: > 1 µM
